The text below walks through data of US10052330B2, “Substituted pyrido[3,4-b]pyrazines as Syk inhibitors” (HUTCHISON MEDIPHARMA LIMITED, priority 2011, dated 2018).

One assay deals with RBL-2H3 cells. As to the kind of experiment: IgE-induced Beta-hexosaminidase secretion in RBL-2H3 cells. Type of assay: cell-based. The settings on record: Rattus norvegicus, RBL-2H3, RBL-2H3 cells sensitized with SPE-7, stimulated with DNP-BSA; upper bound of each range is 'less than'; read-out: IC50, IgE-induced Beta-hexosaminidase secretion.
Another assay has as its target Syk kinase (Homo sapiens, UniProt P43405). As to the kind of experiment: Syk kinase enzymatic assay (Kit-Tyr 2 Peptide). The format is biochemical. The settings on record: 8 concentrations, 1 μM down to 0.0003 μM; upper bound of each range is 'less than'; read-out: IC50: Enzymatic Activity (Syk kinase).

pIC50: −log10 of the molar value.

Broadly, the pIC50 is the negative decadic logarithm of the IC50, by convention in mol/L. As to `CS(=O)(=O)N1CCC(c2ccc(-c3cc4nccnc4c(NCC4CNCCC4(F)F)n3)cc2)CC1` (stereo not drawn) [Compound 447], the pIC50 in the assay with RBL-2H3 cells and on Syk kinase was 7.00 to 9.00 in each case.

With `Oc1ccc(-c2cc3nccnc3c(NC[C@H]3CCCNC3)n2)cc1F` [Compound 67], the values for the pIC50 with RBL-2H3 cells and on Syk kinase were 6.00 to 7.00 and 7.00 to 9.00, respectively.

As to `COCC(=O)N1CCC(c2ccc(-c3cc4nccnc4c(NC[C@@H]4CNCCO4)n3)cc2)CC1` [Compound 505], the pIC50 with RBL-2H3 cells and on Syk kinase was 7.00 to 9.00 throughout.

With `CNc1ccc(-c2cc3nccnc3c(NC[C@@H]3CNCCO3)n2)cc1` [Compound 143], the pIC50 in the assay with RBL-2H3 cells and on Syk kinase was 7.00 to 9.00 each time.

For the molecule `CC1CN(c2ccc(-c3cc4nccnc4c(NCC4CNCCC4(F)F)n3)cc2)CCO1` (single isomer, unassigned) [Compound 308], the pIC50 in the assay with RBL-2H3 cells and on Syk kinase was 7.00 to 9.00 in each case.

Take `CN1CCCN(c2ccc(-c3cc4nccnc4c(NC[C@@H]4CNCCO4)n3)cn2)CC1` [Compound 260]: the pIC50 in the assay on RBL-2H3 cells and on Syk kinase was 6.00 to 7.00 throughout.

For `COc1ccc(-c2cc3nccnc3c(NCC3CNCCC3(F)F)n2)cc1F` (stereo not drawn) [Compound 296], the pIC50 with RBL-2H3 cells and on Syk kinase was 7.00 to 9.00 in each case.

In the case of `Clc1cc(-c2cc3nccnc3c(NCC3CNCCCO3)n2)ccc1N1CCOCC1` (stereo not drawn) [Compound 223], the pIC50 with RBL-2H3 cells and on Syk kinase was 6.00 to 7.00 each time.

Turning to `c1cnc2c(NC[C@@H]3CCCNC3)nc(-c3ccc(N4CCCC4)cc3)cc2n1` [Compound 119], the pIC50 with RBL-2H3 cells was 6.00 to 7.00; on Syk kinase, 7.00 to 9.00.

For `Fc1cc(-c2cc3nccnc3c(NCC3(F)CCCNC3)n2)ccc1N1CCOCC1` (stereo not drawn) [Compound 254], the pIC50 in the assay on RBL-2H3 cells and at Syk kinase was 7.00 to 9.00 in each case.

For the molecule `NS(=O)(=O)N1CCO[C@H](CNc2nc(-c3ccc(N4CCOCC4)cc3)cc3nccnc23)C1` [Compound 333], the pIC50 in the assay with RBL-2H3 cells and at Syk kinase was 7.00 to 9.00 throughout.

Regarding `CCn1cc(-c2cc3nccnc3c(NC[C@@H]3CNCCC3(F)F)n2)cn1` [Compound 392, (S)—N-((4,4-difluoropiperidin-3-yl)methyl)-7-(1-ethyl-1H-pyrazol-4-yl)pyrido[4,3-b]pyrazin-5-amine], the negative logarithm of the IC50 (pIC50) with RBL-2H3 cells and at Syk kinase was 7.00 to 9.00 in each case.

As for `Fc1cc(-c2cc3nccnc3c(NCC3CNCCCO3)n2)ccc1N1CCOCC1` (stereo not drawn) [Compound 222], the pIC50 with RBL-2H3 cells and at Syk kinase was 6.00 to 7.00 in each case.

As to `CS(=O)(=O)N1CCO[C@H](CNc2nc(-c3ccc(N4CCNCC4)cc3)cc3nccnc23)C1` [Compound 462], the pIC50 was 6.00 to 7.00 in the assay with RBL-2H3 cells and 7.00 to 9.00 at Syk kinase.

In the case of `Fc1cc(-c2cc3nccnc3c(N3CCC4(CCCNC4)C3)n2)ccc1N1CCOCC1` (stereo not drawn) [Compound 109], the pIC50 with RBL-2H3 cells and on Syk kinase was 7.00 to 9.00 throughout.

`CC(C)(O)C(=O)N1CCN(c2ccc(-c3cc4nccnc4c(NC[C@@H]4CNCCO4)n3)cc2)CC1` [Compound 412]: the pIC50 in the assay on RBL-2H3 cells was 6.00 to 7.00; on Syk kinase it was 7.00 to 9.00.

As to `CC1(C(=O)N2CCN(c3ccc(-c4cc5nccnc5c(NC[C@@H]5CNCCO5)n4)cc3)CC2)CC1` [Compound 402], the pIC50 in the assay on RBL-2H3 cells and at Syk kinase was 7.00 to 9.00 throughout.

For the molecule `O=C(CC(F)(F)F)N1CCN(c2ccc(-c3cc4nccnc4c(NC[C@@H]4CNCCO4)n3)cc2)CC1` [Compound 411], the pIC50 with RBL-2H3 cells and at Syk kinase was 7.00 to 9.00 in each case.

As for `CCNC[C@@H]1CCN(c2nc(-c3ccc(N4CCOCC4)cc3)cc3nccnc23)C1` [Compound 148], the pIC50 with RBL-2H3 cells and at Syk kinase was 6.00 to 7.00 in each case.

As to `c1cnc2c(NCC3CCNCC3)nc(-c3ccc(N4CCOCC4)cc3)cc2n1` [Compound 37], the pIC50 with RBL-2H3 cells and at Syk kinase was 6.00 to 7.00 each time.

For `CCS(=O)(=O)N1CCN(c2ccc(-c3cc4nccnc4c(NC[C@@H]4CN(C(C)=O)CCO4)n3)cc2)CC1` [Compound 510], the figures for the pIC50 in the assay with RBL-2H3 cells and on Syk kinase were 6.00 to 7.00 and 7.00 to 9.00, respectively.
